Measured values published in ChEMBL document CHEMBL4725485, “Bivalent Ligand Aiming Putative Mu Opioid Receptor and Chemokine Receptor CXCR4 Dimers in Opioid Enhanced HIV-1 Entry” (ACS Med Chem Lett, 2020).
Active and inactive are the calls of the source. The rule behind the calls is not given here.

Assays:
[1] = Inhibition of HIV1 3B Tat infected in human TZM-bl cells assessed as reduction in viral entry in cells when pretreated for 1 hr followed by HIV1 3B infection and further incubated for 2 days followed by luciferase substrate addition by luminescence assay; format: cell-based; details: Human immunodeficiency virus 1, 3B
[2] = Cytotoxicity against human GHOST CXCR4 cells assessed as reduction in cell viability incubated for 4 hrs by XTT assay; format: cell-based; details: read-out: TC50
[3] = system: Human immunodeficiency virus 1; assay: Antiviral activity against HIV1 3B infected in human TZM-bl cells assessed as reduction in viral entry by measuring Tat protein level at 60 nM measured after 3 days by luciferase-based assay; format: functional, organism-based; details: time 3.0 day
[4] = system: Human immunodeficiency virus 1; assay: Antiviral activity against HIV1 3B infected in human TZM-bl cells assessed as reduction in viral entry by measuring Tat protein level at 60 nM measured after 3 days in presence of naltrexone and morphine by luciferase-based assay; format: functional, organism-based; details: time 3.0 day
[5] = system: Human immunodeficiency virus 1; assay: Antiviral activity against HIV1 3B infected in human TZM-bl cells assessed as reduction in viral entry by measuring Tat protein level at 60 nM measured after 3 days in presence of morphine by luciferase-based assay; format: functional, organism-based; details: time 3.0 day
[6] = system: Human immunodeficiency virus 1; assay: Antiviral activity against HIV1 3B infected in human TZM-bl cells assessed as reduction in viral entry by measuring Tat protein level at 1500 nM measured after 3 days in presence of IT1T and morphine by luciferase-based assay; format: functional, organism-based; details: time 3.0 day
Mu-type opioid receptor [7] = molecular target: Mu-type opioid receptor (Mus musculus, UniProt P42866); assay: Displacement of [3H]-NLX from mouse mu opioid receptor expressed in CHO cells measured after 1.5 hrs by competitive-binding assay; format: cell-based
Mu-type opioid receptor [8] = molecular target: T1, Mu-type opioid receptor (Homo sapiens, UniProt P35372); assay: Antagonist activity at human mu opioid receptor expressed in CHO cells co- expressing Gqi5 assessed as decrease in DAMGO-induced intracellular calcium mobilization incubated for 15 mins followed by DAMGO addition by Fluo-AM dye based fluorescence assay; format: functional, cell-based
Mu-type opioid receptor [9] = molecular target: T1, Mu-type opioid receptor; assay: Agonist activity at mu opioid receptor (unknown origin) assessed as maximum efficacy by [35S]-GTPgammaS binding assay relative to DAMGO; format: functional; details: filed as agonist
Mu-type opioid receptor [10] = molecular target: T1, Mu-type opioid receptor; assay: Agonist activity at mu opioid receptor (unknown origin) by [35S]-GTPgammaS binding assay; format: functional
[11] = molecular target: T2, C-X-C chemokine receptor type 4 (Homo sapiens, UniProt P61073); assay: Displacement of [125I]SDF-1alpha from CXCR4 in human Chem-1 cells measured after 90 mins; format: cell-based
[12] = Therapeutic index, ratio of TC50 for human GHOST CXCR4 cells assessed as reduction in cell viability incubated for 4 hrs by XTT assay to EC50 for HIV1 3B reverse transcriptase infected in human GHOST CXCR4 cells assessed as reduction in viral replication incubated for 60 to 90 mins in presence of DTT and TTP by liquid scintillation counter; format: toxicity, cell-based; details: read-out: TI
TZM-bl = assay: Inhibition of HIV1 3B Tat infected in human TZM-bl cells assessed as reduction in viral entry in cells at 30 uM when pretreated for 1 hr followed by HIV1 3B infection and further incubated for 2 days followed by luciferase substrate addition by luminescence assay relative to control; format: cell-based; details: Human immunodeficiency virus 1, time 2.0 day
[13] = molecular target: T2, C-X-C chemokine receptor type 4; assay: Antagonist activity at CXCR4 (unknown origin) expressed in CHO cells assessed as reduction in SDF1-induced intracellular calcium mobilization incubated for 15 mins followed by SDF1 addition by Fluo-AM dye based fluorescence assay; format: functional, cell-based
[14] = system: Human immunodeficiency virus 1; assay: Antiviral activity against HIV1 3B infected in human TZM-bl cells assessed as reduction in viral entry by measuring Tat protein level at 1000 nM measured after 3 days by luciferase-based assay; format: functional, organism-based; details: time 3.0 day
[15] = system: Human immunodeficiency virus 1; assay: Antiviral activity against HIV1 3B infected in human TZM-bl cells assessed as reduction in viral entry by measuring Tat protein level at 1000 nM measured after 3 days in presence of morphine by luciferase-based assay; format: functional, organism-based; details: time 3.0 day

Chain of Mu-type opioid receptor (Mus musculus, UniProt P42866) (P42866 whole entry): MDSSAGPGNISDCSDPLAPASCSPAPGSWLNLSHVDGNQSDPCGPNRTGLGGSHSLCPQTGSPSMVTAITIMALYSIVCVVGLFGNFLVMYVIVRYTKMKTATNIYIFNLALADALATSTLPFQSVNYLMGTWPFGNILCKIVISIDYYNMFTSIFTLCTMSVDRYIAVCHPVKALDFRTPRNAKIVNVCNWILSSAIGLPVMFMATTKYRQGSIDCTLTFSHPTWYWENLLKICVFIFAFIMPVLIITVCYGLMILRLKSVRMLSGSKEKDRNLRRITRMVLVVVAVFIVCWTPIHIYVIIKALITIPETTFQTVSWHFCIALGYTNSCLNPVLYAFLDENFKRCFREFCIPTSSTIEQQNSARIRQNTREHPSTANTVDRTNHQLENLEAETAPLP
T1 sequence (P35372 whole entry): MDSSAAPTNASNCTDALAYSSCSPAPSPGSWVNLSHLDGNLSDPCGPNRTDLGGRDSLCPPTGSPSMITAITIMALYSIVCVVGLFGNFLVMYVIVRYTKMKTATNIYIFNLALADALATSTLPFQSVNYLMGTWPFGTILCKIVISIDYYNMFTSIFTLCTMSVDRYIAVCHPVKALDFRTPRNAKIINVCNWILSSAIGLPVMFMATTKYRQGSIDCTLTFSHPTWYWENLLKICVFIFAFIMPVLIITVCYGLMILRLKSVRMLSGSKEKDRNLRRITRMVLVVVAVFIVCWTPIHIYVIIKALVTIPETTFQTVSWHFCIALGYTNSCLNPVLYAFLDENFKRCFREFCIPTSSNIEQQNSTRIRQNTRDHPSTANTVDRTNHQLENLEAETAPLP
T2 sequence (P61073 whole entry): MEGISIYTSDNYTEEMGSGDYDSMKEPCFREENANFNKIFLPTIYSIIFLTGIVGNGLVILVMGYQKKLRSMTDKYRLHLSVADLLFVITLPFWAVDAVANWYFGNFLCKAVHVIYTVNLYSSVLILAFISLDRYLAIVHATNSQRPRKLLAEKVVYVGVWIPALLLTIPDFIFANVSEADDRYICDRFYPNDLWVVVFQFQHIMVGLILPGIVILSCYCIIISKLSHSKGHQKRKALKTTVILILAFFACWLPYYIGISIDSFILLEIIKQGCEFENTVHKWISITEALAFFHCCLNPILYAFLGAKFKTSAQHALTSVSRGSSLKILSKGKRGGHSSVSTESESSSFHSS

## CC1(C)CN2C(CS/C(=N\C3CCCCC3)NC3CCCCC3)=CSC2=N1
[1]
  IC50: 164 nM
[2]
  CC50 at 4 h: > 1 µM
[3]
  Activity: Active
[4]
  Activity: Active
[5]
  Activity: Active

## O=C1CC[C@@]2(O)[C@H]3Cc4ccc(O)c5c4[C@@]2(CCN3CC2CC2)[C@H]1O5
[6]
  Activity: Active

## CNC(=O)COCC(=O)NCCCCNC(=O)COCC(=O)N[C@@H]1CC[C@@]2(O)[C@H]3Cc4ccc(O)c5c4[C@@]2(CCN3CC2CC2)[C@H]1O5
Mu-type opioid receptor [7]
  Ki: 3.1 nM
Mu-type opioid receptor [8]
  IC50: 254 nM
Mu-type opioid receptor [9]
  Emax: 12.3%
Mu-type opioid receptor [10]
  EC50: 8.1 nM

## CC1(C)CN2C(CS/C(=N\[C@H]3CC[C@H](CNC(=O)COCC(=O)NCCCCCCNC(=O)COCC(=O)N[C@@H]4CC[C@@]5(O)[C@H]6Cc7ccc(O)c8c7[C@@]5(CCN6CC5CC5)[C@H]4O8)CC3)NC3CCCCC3)=CSC2=N1
[11]
  IC50: 0.0172 µM

## CC1(C)CN2C(CS/C(N)=N\[C@H]3CC[C@H](CNC(=O)COCC(=O)NCCCCNC(=O)COCC(=O)N[C@@H]4CC[C@@]5(O)[C@H]6Cc7ccc(O)c8c7[C@@]5(CCN6CC5CC5)[C@H]4O8)CC3)=CSC2=N1
[1]
  IC50: 300 nM
[2]
  CC50 at 4 h: 153 µM
Mu-type opioid receptor [7]
  Ki: 3.8 nM
Mu-type opioid receptor [8]
  IC50: 30.5 nM
Mu-type opioid receptor [9]
  Emax: 9.5%
[11]
  IC50: 3.6 µM
[12]
  selectivity ratio at 4 h: 160
TZM-bl
  inhibition: 100%
[13]
  IC50: 8.3 µM
Mu-type opioid receptor [10]
  EC50: 50 nM
[14]
  Activity: Active
[15]
  Activity: Active

## CC1(C)CN2C(CS/C(=N\[C@H]3CC[C@H](CNC(=O)COCC(=O)NCCCCCCCCNC(=O)COCC(=O)N[C@@H]4CC[C@@]5(O)[C@H]6Cc7ccc(O)c8c7[C@@]5(CCN6CC5CC5)[C@H]4O8)CC3)NC3CCCCC3)=CSC2=N1
Mu-type opioid receptor [7]
  Ki: 2.92 nM

## CNC(=O)COCC(=O)NCCCCNC(=O)COCC(=O)NC[C@H]1CC[C@H](/N=C(\NC2CCCCC2)SCC2=CSC3=NC(C)(C)CN23)CC1
[11]
  IC50: 69 µM
[12]
  selectivity ratio at 4 h: 3.8
[13]
  IC50: 53 µM
